{
  "source": "patent US4497826A",
  "about": "“Antiparkinsonian agent” (priority 1981, dated 1985)",
  "key": {"narcolepsy": {"system": "narcolepsy", "conditions": "six patients, 200 mg intravenous; cited from earlier work"}, "parkinson's disease [1]": {"system": "parkinson's disease", "experiment": "Speed of response (transit time between two switches), patient of Clinical Test 6", "format": "in vivo, human", "conditions": "Clinical Test 6 patient", "method": "The abscissa axis represents time (hour) after administration, and the ordinate axis means transit time (msec). The filled squares represent the transit time after DL-threo-DOPS intake and the open squares on the right side represent the transit time 2 hours after administation of L-DOPA, benserazid hydrochloride and trihexyphenidyl hydrochloride.\nIn order to quantitatively analyze the improvement of the syndromes in the above clinical tests, a speed of response was measured as to some patients in the tests.\nMethod for the measurement: The transit time was measured by using two switches (distance: 15 cm) in the same manner as described in Masao Kato and Kazuya Ando, \"Parkinson's Disease, Physiopathology and Therapy\", page 106, issued by Kanehara Shuppan on Mar. 31, 1978.\nResults: The data of the patient in the above Clinical Test 6 are shown in the attached FIG. 1. As is shown in the figure, when it was measured before administration of DL-threo-DOPS (600 mg) and carbidopa (60 mg) and 1, 3, 4, 6 and 8 hours after the administration, the effect peaked at 4 hours after administration, and at the same time, the transit time was shortened about 170 msec as compared to that before administration of the drugs."}, "[2]": {"system": "parkinson's disease, freezing phenomenon", "experiment": "Clinical tests 1 to 7: treatment of parkinsonian patients with DL-threo-DOPS and a decarboxylase inhibitor", "format": "in vivo, human", "method": "The patient was a person suffering from parkinson's disease, having a disease history of 12 years after being affected by the disease. The primary clinical features were moderate rigidity of the four limbs and trunk were slight tremor. At about 6 years after the start of the disease, L-DOPA therapy was started.\n[…] The patient also had difficulty in writing.\nThis patient was then treated with DL-threo-DOPS in the following dosage, while keeping the administration of L-DOPA, the decarboxylase inhibitor (benserazide hydrochloride) and trihexyphenidyl hydrochloride at strictly the same dosage throughout the period of trial.\nDL-threo-DOPS was orally administered to the patient in the form of a capsule (DL-DOPS content: 200 mg) as follows:\nFirst to 2nd day 6 capsules per day\n3rd to 4th day 9 capsules per day\n5th to 6th day 12 capsules per day\nIt is noted that the decarboxylase inhibitor was not newly administered, because it was already administered together with L-DOPA.\nThe patient was a person suffering from parkinson's disease, whose main syndrome was \"pure akinesia\" which was first described by one of the present inventors [Narabayashi et al, Advances in Parkinsonism (eds., W. Birkmayer and O. Hornykiewicz) Roche Basle, pages 335-342 (1976)].\nBut on the other hand, motion such as going up or down the stairs could be done rather normally. Accordingly, such a syndrome is also called paradoxical kinesia.\nThe patient was treated with DL-threo-DOPS and a decarboxylase inhibitor (carbidopa) in the same dosage as in the above Clinical Test 1.\nIn the same manner, other patients as shown in Table 1 were treated with threo-DOPS and a decarboxylase inhibitor. The results are shown in Table 1 together with the data in the above Clinical Tests 1 and 2."}, "parkinson's disease [3]": {"system": "parkinson's disease", "conditions": "human, 300 mg intravenous; cited from earlier work"}, "decarboxylase": {"system": "decarboxylase", "conditions": "DL-threo-DOPS vs DL-erythro-DOPS; printed as \"1/10 smaller\"; cited from earlier work"}, "parkinson's disease [4]": {"system": "parkinson's disease", "experiment": "Surface electromyogram, patient of Clinical Test 6", "format": "in vivo, human", "conditions": "DL-threo-DOPS 600 mg and carbidopa 60 mg, vs before administration", "method": "FIGS. 2, 3 and 4 each show surface electromyograms after DL-threo-DOPS and carbidopa were administered in comparison with the surface electromygrams before administration of the drugs. The data of FIG. 2 relate to a tremor of the right upper arm at static state. The data of FIG. 3 relate to tonic stretch reflexes of the extensor muscle of right forearm. The data of FIG. 4 indicate improvement of the skillfulness when flexion and extension movement at the right wrist joint was tried. […] E in FIG. 3 represents the period of passive stretching.\nAs to the patient in the above Clinical Test 6, the effect of administration of DL-threo-DOPS (600 mg) and carbidopa (60 mg) was measured by surface electromyogram, which was compared with that measured before the administration of drugs."}, "[5]": {"experiment": "Side effects in the clinical tests", "format": "in vivo, human"}, "[6]": {"experiment": "acute toxicity (LD50) in mice", "conditions": "mouse, in vivo"}, "[7]": {"system": "L-aromatic amino acid decarboxylase", "conditions": "cited from earlier work; for enzymatic decarboxylation of the stereoisomers: L- and D-, threo- and erythro-isomers; for nature of the norepinephrine formed: product of decarboxylation"}, "heart norepinephrine": {"system": "heart norepinephrine", "conditions": "rats, combination with decarboxylase inhibitor; cited from earlier work"}, "brain norepinephrine": {"system": "brain norepinephrine", "conditions": "rats, cited from earlier work"}, "[8]": {"conditions": "Clinical Test 1, 3rd day, with L-DOPA, benserazide, trihexyphenidyl"}, "[9]": {"conditions": "Clinical Test 1, 5th day, with L-DOPA, benserazide, trihexyphenidyl"}},
  "note": "Like-named read-outs stand apart in the source and are kept apart here.",
  "data": [
    {"smiles": "N[C@H](C(=O)O)[C@H](O)c1ccc(O)c(O)c1", "note": "(relative stereo) [DL-threo-DOPS]", "values": [
      {"measurement": "effect on narcolepsy", "setting": "narcolepsy", "value": "ineffective"},
      {"measurement": "shortening of transit time compared to before administration", "setting": "parkinson's disease [1]; 4 hours after DL-threo-DOPS 600 mg and carbidopa 60 mg", "value": "about 170 msec"},
      {"measurement": "time of peak effect on transit time after administration", "setting": "parkinson's disease [1]; DL-threo-DOPS 600 mg and carbidopa 60 mg", "value": 4, "unit": "h"},
      {"measurement": "transit time compared with L-DOPA combination", "setting": "parkinson's disease [1]; vs 2 hours after L-DOPA 100 mg, benserazide 25 mg, trihexyphenidyl hydrochloride 2 mg", "value": "shorter than the transit time measured at 2 hours after administration of L-DOPA"},
      {"measurement": "behavior and expression", "setting": "[2]; [8]", "value": "more active behavior and expression"},
      {"measurement": "difficulty in writing", "setting": "[2]; [8]", "value": "the difficulty in writing had disappeared"},
      {"measurement": "speaking", "setting": "[2]; [8]", "value": "speaking more clearly than before"},
      {"measurement": "walking", "setting": "[2]; [8]", "value": "much easier"},
      {"measurement": "falling down during walking", "setting": "[2]; [9]", "value": "no falling down during walking within rooms and passageways"},
      {"measurement": "walking", "setting": "[2]; [9]", "value": "could walk smoothly without any assistance and the steps of the walk became almost normal with wide steps"},
      {"measurement": "improvement of the syndrome on maintenance", "setting": "[2]; Clinical Test 1, reduced dose of 9 capsules per day", "value": "the improvement of the syndrome is still continuing"},
      {"measurement": "walking and freezing in walking", "setting": "[2]; Clinical Test 2, DL-threo-DOPS 1,800 mg and carbidopa 90 mg", "value": "the walking was improved and the freezing in walking disappeared"},
      {"measurement": "walking", "setting": "[2]; Clinical Test 2, several days after reaching DL-threo-DOPS 1,800 mg and carbidopa 90 mg", "value": "the walking became almost normal"},
      {"measurement": "effect on parkinson's disease", "setting": "parkinson's disease [3]", "value": "ineffective"},
      {"measurement": "rate of decarboxylation relative to DL-erythro-DOPS", "setting": "decarboxylase", "value": "1/10"},
      {"measurement": "tremor of the right upper arm at the static state", "setting": "parkinson's disease [4]; FIG. 2", "value": "remarkably decreased or improved"},
      {"measurement": "rigidity (stiffness) of the extensor muscle of the right forearm", "setting": "parkinson's disease [4]; FIG. 3", "value": "remarkably decreased and improved"},
      {"measurement": "tonic stretch reflex of the extensor muscle of the right forearm", "setting": "parkinson's disease [4]; FIG. 3", "value": "reduced"},
      {"measurement": "skillfulness, flexion and extension movement at the right wrist joint", "setting": "parkinson's disease [4]; FIG. 4", "value": "remarkably improved"}
    ]},
    {"smiles": "N[C@H](C(=O)O)[C@H](O)c1ccc(O)c(O)c1", "note": "(relative stereo) [threo-DOPS, threo-3,4-dihydroxyphenylserine]", "values": [
      {"measurement": "serious side effects", "setting": "[5]", "value": "serious side effects were not observed"},
      {"measurement": "LD50", "setting": "[6]; ip", "value": "~10000", "unit": "mg/kg"},
      {"measurement": "LD50", "setting": "[6]; po", "value": "> 10000", "unit": "mg/kg"}
    ]},
    {"smiles": "NC(C(=O)O)C(O)c1ccc(O)c(O)c1", "note": "(centres unmarked) [DOPS]", "values": [
      {"measurement": "decarboxylation to norepinephrine", "setting": "[7]; in vivo and in vitro", "value": "can be decarboxylated"}
    ]},
    {"smiles": "N[C@@H](Cc1ccc(O)c(O)c1)C(=O)O", "note": "[L-DOPA, L-3,4-dihydroxyphenylalanine, reference compound]", "values": [
      {"measurement": "stiffness and tremor", "setting": "[2]; Clinical Test 1 patient, earlier L-DOPA 400 mg, benserazide 100 mg, trihexyphenidyl 6 mg daily, oral", "value": "the stiffness and tremor were improved"},
      {"measurement": "stiffness and tremor", "setting": "[2]; Clinical Test 1 patient, earlier L-DOPA therapy", "value": "improved the stiffness and tremor remarkably"},
      {"measurement": "freezing", "setting": "[2]; Clinical Test 1 patient, increased amount of L-DOPA", "value": "it became worse"}
    ]},
    {"smiles": "N[C@H](C(=O)O)[C@@H](O)c1ccc(O)c(O)c1", "note": "[L-erythro-DOPS, reference compound]", "values": [
      {"measurement": "enzymatic decarboxylation of the stereoisomers", "setting": "[7]", "value": "can be decarboxylated"},
      {"measurement": "nature of the norepinephrine formed", "setting": "[7]", "value": "not natural"}
    ]},
    {"smiles": "N[C@H](C(=O)O)[C@H](O)c1ccc(O)c(O)c1", "note": "[L-threo-DOPS]", "values": [
      {"measurement": "enzymatic decarboxylation of the stereoisomers", "setting": "[7]", "value": "can be decarboxylated"},
      {"measurement": "nature of the norepinephrine formed", "setting": "[7]", "value": "confirmed as natural l-norepinephrine"},
      {"measurement": "DOPS-induced rise of norepinephrine in the heart", "setting": "heart norepinephrine", "value": "abolished"},
      {"measurement": "DOPS-induced rise of norepinephrine in the brain", "setting": "brain norepinephrine; combination with decarboxylase inhibitor", "value": "did not enhance"},
      {"measurement": "accumulation of norepinephrine in the brain", "setting": "brain norepinephrine; injection into a cerebral ventricle", "value": "remarkable"},
      {"measurement": "accumulation of norepinephrine in the brain", "setting": "brain norepinephrine; intraperitoneal administration", "value": "negligible"},
      {"measurement": "penetration through B.B.B.", "setting": "brain norepinephrine", "value": "poor penetration"}
    ]}
  ]
}
